Data as given in patent US20170190671A1, “BIS(ARYL)CATECHOL DERIVATIVES AS HERBICIDES” (E I DU PONT DE NEMOURS AND COMPANY, priority 2014, published 2017).

Experiments:
Format in all cases: in vivo
[1] = system: barnyardgrass (Echinochloa crus-galli); assay: Test A preemergence; conditions: Echinochloa crus-galli, pre-emergence, 240 h
In short: (§1)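 Pre- and postemergence greenhouse screen. Soil: loam + sand. Spray carrier: solvent mixture, non-phytotoxic, with surfactant. Post timing at 1–2 leaves, height 2–10 cm. Readout: visual injury on a 0–100 scale roughly 10 days after application, untreated plants as reference.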

[2] = system: pigweed (Amaranthus retroflexus); assay: Test A preemergence; conditions: Amaranthus retroflexus, pre-emergence, 240 h
In short: as §1

[3] = system: giant foxtail (Setaria faberii); assay: Test A preemergence; conditions: Setaria faberi, pre-emergence, 240 h
In short: as §1

kochia (Kochia scoparia) [4] = assay: Test A preemergence; conditions: Bassia scoparia, pre-emergence, 240 h
In short: as §1

[5] = system: ragweed (common ragweed, Ambrosia elatior); assay: Test A preemergence; conditions: Ambrosia artemisiifolia, pre-emergence, 240 h
In short: as §1

[6] = system: Italian ryegrass (Lolium multiflorum); assay: Test A preemergence; conditions: Lolium multiflorum, pre-emergence, 240 h
In short: as §1

[7] = system: wheat (Triticum aestivum); assay: Test A postemergence; conditions: Triticum aestivum, post-emergence, 240 h, 0 to 100 scale, read-out: Plant response rating, Wheat
In short: as §1

[8] = system: barnyardgrass (Echinochloa crus-galli); assay: Test A postemergence; conditions: Echinochloa crus-galli, post-emergence, 240 h, 0 to 100 scale, read-out: Plant response rating, Barnyardgrass
In short: as §1

[9] = system: pigweed (Amaranthus retroflexus); assay: Test A postemergence; conditions: Amaranthus retroflexus, post-emergence, 240 h, 0 to 100 scale, read-out: Plant response rating, Pigweed
In short: as §1

corn (Zea mays) = assay: Test A postemergence; conditions: Zea mays, post-emergence, 240 h, 0 to 100 scale
In short: as §1

[10] = system: giant foxtail (Setaria faberii); assay: Test A postemergence; conditions: Setaria faberi, post-emergence, 240 h, 0 to 100 scale, read-out: Plant response rating, Foxtail, Giant
In short: as §1

kochia (Kochia scoparia) [11] = assay: Test A postemergence; conditions: Bassia scoparia, post-emergence, 240 h, 0 to 100 scale, read-out: Plant response rating, Kochia
In short: as §1

[12] = system: galium (catchweed bedstraw, Galium aparine); assay: Test A postemergence; conditions: Galium, post-emergence, 240 h, 0 to 100 scale, read-out: Plant response rating, Galium
In short: as §1

[13] = system: ragweed (common ragweed, Ambrosia elatior); assay: Test A postemergence; conditions: Ambrosia artemisiifolia, post-emergence, 240 h, 0 to 100 scale, read-out: Plant response rating, Ragweed
In short: as §1

[14] = system: blackgrass (Alopecurus myosuroides); assay: Test A postemergence; conditions: Alopecurus myosuroides, post-emergence, 240 h, 0 to 100 scale, read-out: Plant response rating, Blackgrass
In short: as §1

[15] = system: Italian ryegrass (Lolium multiflorum); assay: Test A postemergence; conditions: Lolium multiflorum, post-emergence, 240 h, 0 to 100 scale, read-out: Plant response rating, Ryegrass, Italian
In short: as §1

[16] = system: morningglory (Ipomoea coccinea); assay: Test C postemergence; conditions: Ipomoea, post-emergence, 336 h, Postemergence, scale 0 to 100, read-out: Plant response rating, Morningglory
In short: (§2)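 Greenhouse test; preemergence to seeds in loam/sand soil, or postemergence spray to 2-18 cm, 1- to 4-leaf plants in peat/vermiculite medium; compound in non-phytotoxic solvent plus surfactant. Visual rating vs controls at 13-15 d, 0 = no effect, 100 = complete control.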

[17] = system: giant foxtail (Setaria faberii); assay: Test C postemergence; conditions: Setaria faberi, post-emergence, 336 h, Postemergence, scale 0 to 100, read-out: Plant response rating, Foxtail, Giant
In short: as §2

[18] = system: galium (catchweed bedstraw, Galium aparine); assay: Test C postemergence; conditions: Galium, post-emergence, 336 h, Postemergence, scale 0 to 100, read-out: Plant response rating, Galium
In short: as §2

rice (Oryza sativa) = assay: Test B flooded paddy; conditions: Oryza sativa, 336 h; 250 g ai/ha, Flood, 13 to 15 days, scale 0 (no effect) to 100 (complete control); read-out: Plant response rating, Rice
In short: (§3)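 Pots were flooded to 3 cm above the soil surface at treatment, compound applied directly to the paddy water, and that depth held throughout. Plants were kept in a greenhouse for 13 to 15 days, then visually rated against untreated controls.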

[19] = system: barnyardgrass (Echinochloa crus-galli); assay: Test B flooded paddy; conditions: Echinochloa crus-galli, 336 h; 250 g ai/ha, Flood, 13 to 15 days, scale 0 (no effect) to 100 (complete control); read-out: Plant response rating, Barnyardgrass
In short: as §3

[20] = system: ducksalad (Heteranthera limosa); assay: Test B flooded paddy; conditions: Heteranthera limosa, 336 h; 250 g ai/ha, Flood, 13 to 15 days, scale 0 (no effect) to 100 (complete control); read-out: Plant response rating, Ducksalad
In short: as §3

[21] = system: sedge, umbrella (small-flower umbrella sedge, Cyperus difformis); assay: Test B flooded paddy; conditions: Cyperus difformis, 336 h; 250 g ai/ha, Flood, 13 to 15 days, scale 0 (no effect) to 100 (complete control); read-out: Plant response rating, Sedge, Umbrella
In short: as §3

## Fc1cccc(Oc2ncc(C(F)(F)F)cn2)c1Oc1ncc(Cl)cn1 [Compound 42, 5-chloro-2-[2-fluoro-6-[[5-(trifluoromethyl)-2-pyrimidinyl]oxy]phenoxy]pyrimidine]
[1]; 125 g ai/ha, 0 to 100 scale (0 no effect, 100 complete control), read-out: Barnyardgrass plant response rating
  pest or weed control at 125 g/ha: 100%
[1]; 500 g ai/ha, 0 to 100 scale, read-out: Plant response rating, Barnyardgrass
  pest or weed control at 500 g/ha: 100%
[2]; 125 g ai/ha, 0 to 100 scale (0 no effect, 100 complete control), read-out: Pigweed plant response rating
  pest or weed control at 125 g/ha: 100%
[2]; 500 g ai/ha, 0 to 100 scale, read-out: Plant response rating, Pigweed
  pest or weed control at 500 g/ha: 100%
[3]; 125 g ai/ha, 0 to 100 scale (0 no effect, 100 complete control), read-out: Foxtail, Giant plant response rating
  pest or weed control at 125 g/ha: 100%
[3]; 500 g ai/ha, 0 to 100 scale, read-out: Plant response rating, Foxtail, Giant
  pest or weed control at 500 g/ha: 100%
Kochia (Kochia scoparia) [4]; 125 g ai/ha, 0 to 100 scale (0 no effect, 100 complete control), read-out: Kochia plant response rating
  pest or weed control at 125 g/ha: 100%
Kochia (Kochia scoparia) [4]; 500 g ai/ha, 0 to 100 scale, read-out: Plant response rating, Kochia
  pest or weed control at 500 g/ha: 100%
[5]; 125 g ai/ha, 0 to 100 scale (0 no effect, 100 complete control), read-out: Ragweed plant response rating
  pest or weed control at 125 g/ha: 100%
[5]; 500 g ai/ha, 0 to 100 scale, read-out: Plant response rating, Ragweed
  pest or weed control at 500 g/ha: 100%
[6]; 125 g ai/ha, 0 to 100 scale (0 no effect, 100 complete control), read-out: Ryegrass, Italian plant response rating
  pest or weed control at 125 g/ha: 60%
[6]; 500 g ai/ha, 0 to 100 scale, read-out: Plant response rating, Ryegrass, Italian
  pest or weed control at 500 g/ha: 100%
[7]; 125 g ai/ha
  plant injury at 125 g/ha: 80%
[7]; 500 g ai/ha
  plant injury at 500 g/ha: 100%
[8]; 125 g ai/ha
  pest or weed control at 125 g/ha: 100%
[8]; 500 g ai/ha
  pest or weed control at 500 g/ha: 100%
[9]; 125 g ai/ha
  pest or weed control at 125 g/ha: 100%
[9]; 500 g ai/ha
  pest or weed control at 500 g/ha: 100%
Corn (Zea mays); 125 g ai/ha
  Corn plant response rating (crop injury, 0 = no effect, 100 = complete kill) at 125 g/ha: 80%
Corn (Zea mays); 500 g ai/ha
  Corn plant response rating (crop injury, 0 = no effect, 100 = complete kill) at 500 g/ha: 100%
[10]; 125 g ai/ha
  pest or weed control at 125 g/ha: 100%
[10]; 500 g ai/ha
  pest or weed control at 500 g/ha: 100%
Kochia (Kochia scoparia) [11]; 125 g ai/ha
  pest or weed control at 125 g/ha: 100%
Kochia (Kochia scoparia) [11]; 500 g ai/ha
  pest or weed control at 500 g/ha: 100%
[12]; 125 g ai/ha
  pest or weed control at 125 g/ha: 100%
[12]; 500 g ai/ha
  pest or weed control at 500 g/ha: 100%
[13]; 125 g ai/ha
  pest or weed control at 125 g/ha: 70%
[13]; 500 g ai/ha
  pest or weed control at 500 g/ha: 100%
[14]; 125 g ai/ha
  pest or weed control at 125 g/ha: 90%
[14]; 500 g ai/ha
  pest or weed control at 500 g/ha: 100%
[15]; 125 g ai/ha
  pest or weed control at 125 g/ha: 100%
[15]; 500 g ai/ha
  pest or weed control at 500 g/ha: 100%
[16]; 31 g ai/ha
  pest or weed control at 31 g/ha: 70%
[16]; 62 g ai/ha
  pest or weed control at 62 g/ha: 75%
[16]; 125 g ai/ha
  pest or weed control at 125 g/ha: 85%
[17]; 16 g ai/ha
  pest or weed control at 16 g/ha: 30%
[17]; 31 g ai/ha
  pest or weed control at 31 g/ha: 30%
[17]; 62 g ai/ha
  pest or weed control at 62 g/ha: 35%
[17]; 125 g ai/ha
  pest or weed control at 125 g/ha: 35%
[18]; 16 g ai/ha
  pest or weed control at 16 g/ha: 75%
[18]; 31 g ai/ha
  pest or weed control at 31 g/ha: 98%
[18]; 62 g ai/ha
  pest or weed control at 62 g/ha: 100%
[18]; 125 g ai/ha
  pest or weed control at 125 g/ha: 100%
Rice (Oryza sativa)
  plant injury at 250 g/ha: 80%
[19]
  pest or weed control at 250 g/ha: 100%
[20]
  pest or weed control at 250 g/ha: 100%
[21]
  pest or weed control at 250 g/ha: 100%
